Results reported in ChEMBL document CHEMBL1147510 (Bioorg Med Chem Lett, 2004).
Calls of active or inactive are those of the source. No cut-off for these calls is given here.

Tests used:
[1] = biological target: T1, Neuronal acetylcholine receptor; alpha4/beta2 (Homo sapiens, UniProt P17787+P43681); test: Activation responses to that evoked by ACh at human Nicotinic acetylcholine receptor alpha4-beta2 expressed in xenopus oocytes at 300 uM; type: cell-based; conditions: Oocyte
[2] = biological target: T2, 5-hydroxytryptamine receptor 3A (Rattus norvegicus) (UniProt P35563); test: Effect on rat 5-hydroxytryptamine 3a receptor expressed in xenopus oocytes at concentration up to 100 uM; type: functional, cell-based; conditions: Oocyte
T2 sequence (whole entry): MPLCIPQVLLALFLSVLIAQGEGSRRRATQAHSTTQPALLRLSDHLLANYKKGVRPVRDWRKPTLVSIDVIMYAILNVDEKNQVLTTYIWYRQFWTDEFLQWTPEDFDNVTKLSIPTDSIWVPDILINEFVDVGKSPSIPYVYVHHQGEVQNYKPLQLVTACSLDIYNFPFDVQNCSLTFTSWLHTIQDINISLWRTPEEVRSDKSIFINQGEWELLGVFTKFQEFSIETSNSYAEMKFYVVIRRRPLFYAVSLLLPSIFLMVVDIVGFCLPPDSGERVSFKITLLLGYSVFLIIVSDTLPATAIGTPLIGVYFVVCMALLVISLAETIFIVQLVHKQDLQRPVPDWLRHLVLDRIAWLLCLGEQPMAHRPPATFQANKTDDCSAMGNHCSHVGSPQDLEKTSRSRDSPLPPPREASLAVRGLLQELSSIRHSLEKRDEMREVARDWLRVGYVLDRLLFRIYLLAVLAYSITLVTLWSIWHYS

[3] = biological target: T1, Neuronal acetylcholine receptor; alpha4/beta2; test: Activation responses to that evoked by ACh at human Nicotinic acetylcholine receptor alpha4-beta2; type: protein-complex assay
[4] = biological target: T2, 5-hydroxytryptamine receptor 3A (Rattus norvegicus); test: Ability to block serotonin (30 uM)-evoked responses at rat 5HT3-alpha receptor expressed in xenopus oocytes; type: functional, cell-based; conditions: Oocyte
[5] = biological target: T3, Neuronal acetylcholine receptor; alpha3/beta2 (Homo sapiens) (UniProt P17787+P32297); test: Activation responses to that evoked by Nicotinic acetylcholine receptor alpha3-beta2 expressed in xenopus oocytes at 300 uM; type: cell-based; conditions: Oocyte
[6] = biological target: T3, Neuronal acetylcholine receptor; alpha3/beta2 (Homo sapiens); test: Activation responses to that evoked by Nicotinic acetylcholine receptor alpha3-beta2 expressed in xenopus oocytes at 1 mM; type: cell-based; conditions: Oocyte
[7] = biological target: T1, Neuronal acetylcholine receptor; alpha4/beta2; test: Antagonism of ACh response at Nicotinic acetylcholine receptor alpha4-beta2 expressed in xenopus oocytes; type: functional, cell-based, Oocyte
[8] = biological target: T4, Neuronal acetylcholine receptor subunit alpha-7 (Rattus norvegicus, UniProt Q05941); test: Activation responses to that evoked by ACh at human Nicotinic acetylcholine receptor alpha-7 expressed in xenopus oocytes; type: cell-based, Oocyte
[9] = biological target: T5, Neuronal acetylcholine receptor; alpha3/beta4 (Homo sapiens, UniProt P30926+P32297); test: Activation responses to that evoked by ACh at human alpha3-beta4 receptor expressed in xenopus oocytes at 1 mM; type: cell-based; conditions: Oocyte
[10] = biological target: T5, Neuronal acetylcholine receptor; alpha3/beta4; test: Antagonism of ACh-evoked responses at human Nicotinic acetylcholine receptor alpha3-beta4 expressed in xenopus oocytes; type: functional, cell-based, Oocyte
Oocyte [11] = test: Activation responses to that evoked by ACh at human Nicotinic acetylcholine receptor alpha-3-beta-2-alpha-5 expressed in xenopus oocytes at 100 uM; type: cell-based
Oocyte [12] = test: Antagonism of ACh response at Nicotinic acetylcholine receptor alpha-3-beta-2-alpha-5 receptor expressed in xenopus oocytes up to 1 mM; type: functional, cell-based; conditions: Homo sapiens
[13] = biological target: T4, Neuronal acetylcholine receptor subunit alpha-7; test: Inhibition of the response to ACh when coapplied with Nicotinic acetylcholine receptor alpha7
[14] = biological target: T3, Neuronal acetylcholine receptor; alpha3/beta2 (Homo sapiens); test: Responses to that evoked by Nicotinic acetylcholine receptor alpha3-beta2 expressed in xenopus oocytes up to 1 mM; type: cell-based; conditions: Oocyte
[15] = biological target: T1, Neuronal acetylcholine receptor; alpha4/beta2; test: Responses to that evoked by ACh at human Nicotinic acetylcholine receptor alpha4-beta2 expressed in xenopus oocytes up to 1 mM; type: cell-based; conditions: Oocyte
[16] = biological target: T5, Neuronal acetylcholine receptor; alpha3/beta4; test: Responses to that evoked by Nicotinic acetylcholine receptor alpha3-beta4 expressed in xenopus oocytes up to 1 mM; type: cell-based; conditions: Oocyte

T1 sequence (P17787 whole entry): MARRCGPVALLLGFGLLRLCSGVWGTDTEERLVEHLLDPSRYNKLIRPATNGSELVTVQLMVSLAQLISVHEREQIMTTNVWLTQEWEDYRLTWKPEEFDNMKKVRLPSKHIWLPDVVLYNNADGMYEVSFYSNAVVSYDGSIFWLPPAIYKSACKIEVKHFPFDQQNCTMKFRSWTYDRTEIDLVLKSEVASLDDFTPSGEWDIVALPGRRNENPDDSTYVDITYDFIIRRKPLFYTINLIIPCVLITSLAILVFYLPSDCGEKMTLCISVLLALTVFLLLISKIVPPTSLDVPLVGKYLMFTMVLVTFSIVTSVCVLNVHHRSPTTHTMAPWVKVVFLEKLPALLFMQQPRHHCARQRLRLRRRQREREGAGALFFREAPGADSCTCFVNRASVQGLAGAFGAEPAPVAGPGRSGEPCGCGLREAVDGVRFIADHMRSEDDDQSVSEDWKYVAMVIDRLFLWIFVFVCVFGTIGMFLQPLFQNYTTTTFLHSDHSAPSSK
T1 sequence (P43681 whole entry): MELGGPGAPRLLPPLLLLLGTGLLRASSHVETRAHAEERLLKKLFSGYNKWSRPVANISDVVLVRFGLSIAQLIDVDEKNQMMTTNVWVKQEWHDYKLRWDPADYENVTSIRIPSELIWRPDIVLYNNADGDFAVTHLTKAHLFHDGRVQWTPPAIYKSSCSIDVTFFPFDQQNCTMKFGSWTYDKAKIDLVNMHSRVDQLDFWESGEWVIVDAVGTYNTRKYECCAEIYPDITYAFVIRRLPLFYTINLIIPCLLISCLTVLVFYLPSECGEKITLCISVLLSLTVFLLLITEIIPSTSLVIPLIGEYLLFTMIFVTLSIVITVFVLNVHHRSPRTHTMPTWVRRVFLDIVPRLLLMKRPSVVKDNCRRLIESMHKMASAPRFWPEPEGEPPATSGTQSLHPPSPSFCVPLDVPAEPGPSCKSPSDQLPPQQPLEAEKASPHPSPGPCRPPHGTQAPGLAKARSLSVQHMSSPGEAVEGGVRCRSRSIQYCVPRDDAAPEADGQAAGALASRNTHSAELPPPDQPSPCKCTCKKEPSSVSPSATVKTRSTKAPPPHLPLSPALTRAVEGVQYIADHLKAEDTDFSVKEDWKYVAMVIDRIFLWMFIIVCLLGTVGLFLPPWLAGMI
T4 sequence (Q05941 whole entry): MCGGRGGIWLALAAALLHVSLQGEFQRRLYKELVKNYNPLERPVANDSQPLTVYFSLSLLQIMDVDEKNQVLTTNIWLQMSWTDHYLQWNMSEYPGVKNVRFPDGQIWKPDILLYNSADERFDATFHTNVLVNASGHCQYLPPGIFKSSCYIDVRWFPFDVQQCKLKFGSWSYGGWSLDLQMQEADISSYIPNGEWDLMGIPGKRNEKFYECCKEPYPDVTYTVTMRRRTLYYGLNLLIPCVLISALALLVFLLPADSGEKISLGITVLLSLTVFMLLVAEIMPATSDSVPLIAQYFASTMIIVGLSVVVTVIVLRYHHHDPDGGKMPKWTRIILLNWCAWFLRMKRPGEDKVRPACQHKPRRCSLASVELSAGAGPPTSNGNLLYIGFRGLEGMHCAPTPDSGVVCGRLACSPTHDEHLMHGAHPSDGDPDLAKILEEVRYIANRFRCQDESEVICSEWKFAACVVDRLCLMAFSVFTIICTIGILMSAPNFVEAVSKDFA
T5 sequence (P30926 whole entry): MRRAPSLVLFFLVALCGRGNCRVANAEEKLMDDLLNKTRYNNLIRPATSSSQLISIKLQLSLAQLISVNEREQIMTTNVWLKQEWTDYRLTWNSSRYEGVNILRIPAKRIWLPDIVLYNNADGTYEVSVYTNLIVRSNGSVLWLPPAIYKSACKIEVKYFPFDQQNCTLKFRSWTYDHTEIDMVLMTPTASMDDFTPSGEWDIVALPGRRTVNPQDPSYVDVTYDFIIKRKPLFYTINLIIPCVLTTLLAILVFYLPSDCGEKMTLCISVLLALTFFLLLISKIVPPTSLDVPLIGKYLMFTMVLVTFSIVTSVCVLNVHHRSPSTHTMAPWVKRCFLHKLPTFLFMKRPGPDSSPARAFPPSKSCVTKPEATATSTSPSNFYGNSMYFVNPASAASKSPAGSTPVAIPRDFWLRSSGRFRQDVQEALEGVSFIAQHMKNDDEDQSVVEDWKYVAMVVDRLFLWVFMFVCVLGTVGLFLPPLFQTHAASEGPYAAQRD
T5 sequence (P32297 whole entry): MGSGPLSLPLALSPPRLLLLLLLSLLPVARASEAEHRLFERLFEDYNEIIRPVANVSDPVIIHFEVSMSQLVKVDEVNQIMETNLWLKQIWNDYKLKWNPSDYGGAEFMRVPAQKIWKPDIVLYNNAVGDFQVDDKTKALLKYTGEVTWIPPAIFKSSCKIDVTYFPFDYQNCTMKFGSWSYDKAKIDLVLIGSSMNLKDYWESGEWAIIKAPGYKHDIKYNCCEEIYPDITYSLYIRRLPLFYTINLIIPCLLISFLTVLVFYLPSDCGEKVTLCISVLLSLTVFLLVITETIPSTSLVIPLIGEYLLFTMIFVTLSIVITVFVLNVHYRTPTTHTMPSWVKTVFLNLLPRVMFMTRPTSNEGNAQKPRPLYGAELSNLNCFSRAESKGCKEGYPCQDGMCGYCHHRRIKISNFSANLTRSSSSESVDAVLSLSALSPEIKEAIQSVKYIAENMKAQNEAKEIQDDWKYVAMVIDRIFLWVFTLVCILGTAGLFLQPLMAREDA

Row | IC50 [7] [µM] | Effect (Oocyte [12]) | IC50 [13] [µM] | Effect [14] | Effect ([15]; filed as antagonist) | Effect ([16]; filed as antagonist) | Effect [15] | Effect [16] | SMILES | Activation [1] [%] | Effect [2] | Activation [3] [%] | Effect [4] | Activation [5] [%] | Activation [6] [%] | EC50 [8] [µM] | Activation [9] | IC50 [10] [µM] | Activation (Oocyte [11]) [%]
1 | 66 | inactive | 25 | inactive | Antagonist | Antagonist |  |  | Cc1nccn1CC1CCc2c(c3ccccc3n2C)C1=O (stereo not drawn) [ONDANSETRON] |  |  |  |  |  |  |  |  | 27 | 
2 | 170 | inactive |  | inactive |  |  | inactive | inactive | CN1[C@@H]2CC[C@H]1C[C@@H](OC(=O)c1c[nH]c3ccccc13)C2 [TROPISETRON] |  |  |  |  |  |  |  |  |  | 

Row | SMILES | IC50 [7] [µM] | Effect (Oocyte [12]) | IC50 [13] [µM] | Effect [14] | Effect ([15]; filed as antagonist) | Effect ([16]; filed as antagonist) | Effect [15] | Effect [16] | Activation [1] [%] | Effect [2] | Activation [3] [%] | Effect [4] | Activation [5] [%] | Activation [6] [%] | EC50 [8] [µM] | Activation [9] | IC50 [10] [µM] | Activation (Oocyte [11]) [%]
3 | O=C1NC[C@@]2(CN3CCC2CC3)O1 | > 2000 |  |  |  |  |  |  |  | 1 | inactive | 2 | inactive | 1 | 2 | 0.38 | inactive | > 1000 | 3
